According to patent US20260273084A1, “ANTIBODY-DRUG CONJUGATES” (ADC THERAPEUTICS SA, priority 2023, published 2026):
Numbered stars: 1 amine (or outer) side, 2 acyl side, 3 side chain; on linkers, the order of the positions; unused ones are H or OH. Square brackets hold non-standard residues; d marks the D form. Peptide text beside a SMILES is read from it. * marks the point of attachment. Exatecan = CC[C@@]1(O)C(=O)OCc2c1cc1n(c2=O)Cc2c-1nc1cc(F)c(C)c3c1c2[C@@H](N*)CC3; Propanoyl(3-maleimido) = O=C1C=CC(=O)N1CCC(=O)*; PABC = O=C(OCc1ccc(N[*:1])cc1)[*:2]

Test: Aggregation studies: % monomer by SEC after conjugation to test monoclonal antibody
Type: physicochemical
Settings: 95% monomer or greater assessed as low aggregation
Procedure: Aggregation is a process in which molecules self-associate with each other. In the context of the present invention, aggregation levels are assessed during the conjugation of a linker construct to an antibody. During conjugation, aggregation is quantified in terms of percentage monomer content. High percentage monomer values typically equate to a lower degree of aggregation. Percentage monomer values of 93% or 95% or higher typically mean negligible levels of aggregation or none, whereas values below this threshold typically translate to higher levels of aggregation.
2 mg of test monoclonal antibody at 8.87 mg/mL was pH adjusted with 5% 0.5 M Tris, 0.025 M EDTA, pH 8.5 and reduced with 2.3 mol. eq TCEP and then conjugated with 6 mol. eq drug linker. […] Percentage monomer values of 95% or greater are assessed as low aggregation.
Aggregation levels were assessed during the conjugation to the test antibody.
During conjugation, we are ideally targeting a monomer content or percentage monomer of 95% or above. Low percentage monomer values usually translate to a higher degree of aggregation. One could therefore agree that percentage monomer values of 95% or higher mean very low levels of aggregation or none, whereas values below this threshold often translate to higher levels of aggregation.

## CC[C@@]1(O)C(=O)OCc2c1cc1n(c2=O)Cc2c-1nc1cc(F)c(C)c3c1c2[C@@H](NC(=O)OCc1ccc(NC(=O)[C@H](C)NC(=O)[C@@H](NC(=O)CNC(=O)CNC(=O)CNC(=O)CNC(=O)CNC(=O)CCN2C(=O)C=CC2=O)C(C)C)cc1)CC3 [Mal-Gly5-VA-PABC-Exatecan] ({Propanoyl(3-maleimido)}-GGGGGVA[PABC]-Exatecan)
  Aggregation (grade in words): None
